This passage reports LC retention time results from the RepoRT retention time repository.

Each structure is given as a SMILES string.

The data set in a line: Waters XBridge BEH C18, 150 × 1 mm, 1.7 µm, 30 °C, 0.04 mL/min, estimated dead time 1.9 min; A: 79.7% water + 20% methanol + 0.3% acetic acid; B: 99.7% methanol + 0.3% acetic acid; gradient (min/%B) 0/0 17/58.7 17.2/100 20.2/100. The settings on record: stereoisomer not certain.
Turning to `CNCC1CCCCC1(O)c1cccc(OC)c1` (stereo unspecified), the LC retention time was 12.5 min.

Consider `CNC(C)Cc1ccc2c(c1)OCO2` (stereo unspecified), for which the LC retention time was 8.3 min.

With `CN1C2CC=C(C(=O)O)C1CC2` (stereo unspecified), the LC retention time was 3 min.

For the compound `Nc1ccc2c(c1)C(c1ccccc1)=NCC(=O)N2`, the LC retention time was 6.2 min.

For the compound `CNC(C)Cc1ccccc1` (stereo unspecified), the LC retention time is 7.9 min.

Consider `c1ccc(CN2CCNCC2)cc1`, for which the LC retention time was 4.3 min.

Turning to `CCC(N)Cc1ccc2c(c1)OCO2` (stereo unspecified), the LC retention time is 10.3 min.

`COC(=O)C1C2CCC(CC1OC(=O)c1ccccc1)N2` (stereo unspecified): the LC retention time was 12.8 min.

Consider `COc1ccc2c3c1OC1C(O)CCC4C(C2)N(C)CCC341` (stereo unspecified), for which the LC retention time is 4.6 min.

As for `COc1ccc2c3c1OC1C(O)C=CC4C(C2)NCCC341` (stereo unspecified), the LC retention time is 5.1 min.

Consider `CCOC(=O)C1C(OC(=O)c2ccccc2)CC2CCC1N2C` (stereo unspecified), for which the LC retention time was 13.9 min.

On to `CC(N)Cc1ccccc1` (stereo unspecified), for which the LC retention time was 7.5 min.

Turning to `CCNC(C)Cc1ccc2c(c1)OCO2` (stereo unspecified), the LC retention time was 9.4 min.

As to `CN1C(=O)CCC1c1cccnc1` (stereo unspecified), the LC retention time is 3.6 min.

Turning to `CN1CCC23c4c5ccc(O)c4OC2C(=O)CCC3(O)C1C5` (stereo unspecified), the LC retention time was 3.6 min.

Turning to `CC(=O)Oc1ccc2c3c1OC1C(OC(C)=O)C=CC4C(C2)N(C)CCC341` (stereo unspecified), the LC retention time is 11.4 min.

As for `COC12CCC3(CC1C(C)(O)C(C)(C)C)C1Cc4ccc(O)c5c4C3(CCN1CC1CC1)C2O5` (stereo unspecified), the LC retention time was 17.3 min.

In the case of `CCOP(=O)(Sc1ccccc1)Sc1ccccc1`, the LC retention time is 16.7 min.

Take `CCN(CC)C(=O)C1C=C2c3cccc4[nH]cc(c34)CC2N(C)C1` (stereo unspecified): the LC retention time was 13.8 min.

With `Oc1ccc2c3c1OC1C(O)C=CC4C(C2)NCCC341` (stereo unspecified), the LC retention time is 3.5 min.

With `Cc1ccccc1-n1c(C)nc2ccccc2c1=O`, the LC retention time is 20.2 min.

As to `CN1CCC23c4c5ccc(O)c4OC2C(O)C=CC3C1C5` (stereo unspecified), the LC retention time was 3.5 min.

As for `CC(=O)OC1C=CC2C3Cc4ccc(O)c5c4C2(CCN3C)C1O5` (stereo unspecified), the LC retention time is 6.4 min.

As for `COC(=O)C1C(OC(=O)c2ccccc2)CC2CCC1N2C` (stereo unspecified), the LC retention time was 11.8 min.

Turning to `COc1cc(CCN)cc(OC)c1OC`, the LC retention time is 7 min.

Consider `CN1C2CCC1C(C(=O)O)C(OC(=O)c1ccccc1)C2` (stereo unspecified), for which the LC retention time is 10.7 min.

For the compound `COc1cccc(C2(O)CCCCC2CN(C)C)c1` (stereo unspecified), the LC retention time is 11.4 min.

With `CC(N)Cc1ccc2c(c1)OCO2` (stereo unspecified), the LC retention time was 8.1 min.

Turning to `CN(C)CCC=C1c2ccccc2CSc2ccccc21`, the LC retention time was 19.2 min.

Take `COc1ccc2c3c1OC1C(=O)CCC4(O)C(C2)N(C)CCC314` (stereo unspecified): the LC retention time was 5.4 min.

Turning to `CC(N)C(O)c1ccccc1` (stereo unspecified), the LC retention time was 5.2 min.

Consider `CCC(Cc1ccc2c(c1)OCO2)NC` (stereo unspecified), for which the LC retention time was 10.3 min.

As to `COc1ccc(C(CN(C)C)C2(O)CCCCC2)cc1` (stereo unspecified), the LC retention time was 15.4 min.

With `CNC(C)C(O)c1ccccc1` (stereo unspecified), the LC retention time was 5.9 min.

For `COc1ccc2c3c1OC1C(O)C=CC4C(C2)N(C)CCC341` (stereo unspecified), the LC retention time is 4.8 min.

`CCC(=O)OC(Cc1ccccc1)(c1ccccc1)C(C)CN(C)C` (stereo unspecified): the LC retention time is 19.6 min.

For `CCC(=O)OC(Cc1ccccc1)(c1ccccc1)C(C)CNC` (stereo unspecified), the LC retention time is 20.1 min.

On to `CN1CCCC1c1cccnc1` (stereo unspecified), for which the LC retention time was 3.3 min.

For the compound `Cn1c(=O)c2c(ncn2C)n(C)c1=O`, the LC retention time was 9 min.

In the case of `c1ccc(C2(N3CCCCC3)CCCCC2)cc1`, the LC retention time was 14.7 min.

For `CCCc1nn(C)c2c(=O)[nH]c(-c3cc(S(=O)(=O)N4CCN(C)CC4)ccc3OCC)nc12`, the LC retention time is 18.8 min.

Take `CNC(C)C(=O)c1ccccc1` (stereo unspecified): the LC retention time was 5.6 min.

On to `O=C1CN=C(c2ccccc2)c2cc([N+](=O)[O-])ccc2N1`, for which the LC retention time was 19.8 min.

Consider `COC(=O)C1=CCC2CCC1N2C` (stereo unspecified), for which the LC retention time is 3.6 min.

Consider `Cn1c(=O)[nH]c2ncn(C)c2c1=O`, for which the LC retention time is 6.1 min.

Turning to `CCC(=O)C(CC(C)N(C)C)(c1ccccc1)c1ccccc1` (stereo unspecified), the LC retention time is 20.2 min.
